Assay results from patent US20210317099A1, “SAFER, POTENT, AND FAST ACTING ANTIMICROBIAL AGENTS” (Purdue Research Foundation, priority 2020, published 2021).
In brackets after ≈: the same amount, converted by molar mass. Like-named read-outs stand apart in the source and are kept apart here.

Tested on: Staphylococcus aureus NRS384 (MRSA USA300)
Assay: Initial MIC screening, broth microdilution (CLSI)
Format: cell-based
Settings: Staphylococcus aureus NRS384 (MRSA USA300), broth microdilution, visual reading
Protocol: Method: The minimum inhibitory concentration (MIC) of the compounds 1-187, and control antibiotics (vancomycin, linezolid) was determined using the broth microdilution method against methicillin-resistant Staphylococcus aureus (MRSA) USA 300 using the broth microdilution method according to the guidelines outlined by the Clinical and Laboratory Standards Institute (CLSI). MRSA strain was cultivated on Tryptic soy agar plates and let grow for 24 hours at 37° C. under aerobic conditions. Bacterial suspension equivalent to 0.5 McFarland standard was prepared and diluted in cation-adjusted Mueller-Hinton broth (CAMHB) to attain a bacterial concentration of 5×10^5 CFU/ml and seeded in 96-well plates. The desired concentrations of each drug and compound were added in the first row of the 96-well plates and serially diluted to achieve a concentration gradient from 64 μg/ml to 0.5 μg/mL.

[1] = Staphylococcus aureus, read-out: MIC

MIC [1]	MIC	SMILES
8 µg/mL (≈ 22.6 µM)		C=C1C(=O)O[C@H](c2cccc(Br)c2)[C@@H]1c1ccc(C#N)cc1 [Compound 1]
8 µg/mL (≈ 22.3 µM)		C=C1C(=O)O[C@H](c2ccc(OC)cc2)[C@@H]1c1ccc(Br)cc1 [Compound 2]
8 µg/mL (≈ 22.3 µM)		C=C1C(=O)O[C@H](c2ccc(OC)cc2)[C@@H]1c1cccc(Br)c1 [Compound 3]
256 µg/mL (≈ 879 µM)		C=C1C(=O)O[C@H](c2ccc(O)cc2)[C@@H]1c1ccc(C#N)cc1 [Compound 4]
16 µg/mL (≈ 54.2 µM)		CN(C)C[C@@H]1C(=O)O[C@H](c2ccccc2)[C@@H]1c1ccccc1 [Compound 5]
32 µg/mL (≈ 98.9 µM)		Cc1ccc([C@@H]2[C@H](CN(C)C)C(=O)O[C@@H]2c2ccc(C)cc2)cc1 [Compound 6]
32 µg/mL (≈ 94.3 µM)		COc1ccc([C@H]2OC(=O)[C@@H](CN(C)C)[C@H]2c2ccc(C)cc2)cc1 [Compound 7]
> 256 µg/mL		COc1ccc([C@H]2OC(=O)[C@@H](CN(C)C)[C@H]2c2ccccc2)cc1 [Compound 8]
128 µg/mL (≈ 365 µM)		COc1ccc([C@@H]2[C@H](CN(C)C)C(=O)O[C@@H]2c2ccc(C#N)cc2)cc1 [Compound 9]
16 µg/mL (≈ 55.9 µM)		C=C1C(=O)O[C@H](c2cccc(F)c2F)[C@H]1c1ccccc1 [Compound 10]
32 µg/mL (≈ 108 µM)		CN(C)CC1C(=O)O[C@H](c2ccccc2)[C@H]1c1ccccc1 (stereo partly drawn) [Compound 11]
4 µg/mL (≈ 11.3 µM)		C=C1C(=O)O[C@H](c2ccccc2Br)[C@@H]1c1ccc(C#N)cc1 [Compound 12]
4 µg/mL (≈ 11.3 µM)		C=C1C(=O)O[C@H](c2ccc(Br)cc2)[C@@H]1c1ccc(C#N)cc1 [Compound 13]
> 128 µg/mL		Cc1ccc([C@H]2OC(=O)C(CN(C)C)[C@H]2c2ccc(C#N)cc2)cc1 (stereo partly drawn) [Compound 14]
> 128 µg/mL		COc1ccc([C@H]2OC(=O)C(CN(C)C)[C@H]2c2ccc(C#N)cc2)cc1 (stereo partly drawn) [Compound 15]
> 128 µg/mL		CN(C)CC1C(=O)O[C@H](c2ccccc2)[C@@H]1c1ccc(C#N)cc1 (stereo partly drawn) [Compound 16]
64 µg/mL (≈ 197 µM)		COc1ccc([C@@H]2C(CN(C)C)C(=O)O[C@@H]2c2ccccc2)cc1 (stereo partly drawn) [Compound 17]
128 µg/mL (≈ 414 µM)		Cc1ccc([C@H]2OC(=O)C(CN(C)C)[C@H]2c2ccccc2)cc1 (stereo partly drawn) [Compound 18]

MIC [1]	MIC	SMILES
64 µg/mL (≈ 210 µM)		C=C1C(=O)O[C@H](c2cccc(OC)c2)[C@@H]1c1ccc(C#N)cc1 [Compound 19]
16 µg/mL (≈ 52.4 µM)		C=C1C(=O)O[C@H](c2cccc(C#N)c2)[C@@H]1c1ccc(OC)cc1 [Compound 20]
	32 µg/mL (≈ 107 µM)	C=C1C(=O)O[C@H](c2ccc3ccccc3c2)[C@@H]1c1ccccc1 [Compound 21]
32 µg/mL (≈ 121 µM)		C=C1C(=O)O[C@H](c2ccc(N)cc2)[C@@H]1c1ccccc1 [Compound 22]
> 128 µg/mL		C=C1C(=O)OC[C@@H]1c1ccccc1 [Compound 25]
> 128 µg/mL		CCCCC[C@@H]1CC(CN2CCCCC2)C(=O)O1 (stereo partly drawn) [Compound 26]
> 128 µg/mL		COc1cc([C@H]2OC(=O)C(CN3CCCCC3)[C@H]2c2ccccc2Br)ccc1OCc1ccccc1 (stereo partly drawn) [Compound 27]
> 128 µg/mL		N#Cc1ccc([C@H]2COC(=O)C2CN2CCCCC2)cc1 (stereo partly drawn) [Compound 28]
16 µg/mL (≈ 42.3 µM)		C/C=C/[C@H]1OC(=O)C(CN2CCCCC2)[C@H]1c1ccc(Br)cc1 (stereo partly drawn) [Compound 29]
> 128 µg/mL		O=C1O[C@H](c2ccc3ccccc3c2)CC1CN1CCCCC1 (stereo partly drawn) [Compound 31]
> 128 µg/mL		O=C1O[C@H](c2ccccc2)CC1CN1CCCCC1 (stereo partly drawn) [Compound 32]
> 128 µg/mL		C[C@@]1(c2ccccc2)CC(CN2CCCCC2)C(=O)O1 (stereo partly drawn) [Compound 33]
64 µg/mL (≈ 169 µM)		COc1ccc([C@@H]2C(CN3CCCCC3)C(=O)O[C@@H]2c2ccc(C)cc2)cc1 (stereo partly drawn) [Compound 35]
16 µg/mL (≈ 55.3 µM)		C=C1C(=O)O[C@H](c2ccc(C#N)cc2)[C@@H]1c1ccc(C)cc1 [Compound 37]
64 µg/mL (≈ 232 µM)		C=C1C(=O)O[C@H](c2ccc(C#N)cc2)[C@@H]1c1ccccc1 [Compound 39]
16 µg/mL (≈ 44.5 µM)		C=C1C(=O)O[C@H](c2ccccc2OC)[C@@H]1c1ccccc1Br [Compound 40]
> 128 µg/mL		CCC[C@H]1COC(=O)C1CN1CCCCC1 (stereo partly drawn) [Compound 41]

SMILES	MIC [1]	MIC
O=C1OCCC1CN1CCCCC1 (stereo not drawn) [Compound 34]	> 128 µg/mL	
